Measurements as given in patent US10744092B2, “Temperature-sensitive composite and method for preparing same” (KOREA UNIVERSITY RESEARCH AND BUSINESS FOUNDATION, SEJONG …, priority 2016, dated 2020).

Key:
[1] = Release pattern of drug from composite (dialysis bag in PBS pH 7.4, HPLC); type: physicochemical; details: at body temperature (37° C.) versus room temperature; PBS pH 7.4, dialysis bag
Experimental: To confirm the release pattern of a drug from the temperature-sensitive composite in the present invention, an experiment was carried out as follows. 20 mg of each of the temperature-sensitive composites from Examples 1, 2 and 3, and the temperature-sensitive polymer composites from Comparative Examples 1, 2 and 3 was put into a dialysis bag (filtration molecular weight cut-off—100,000), and then immersed in 20 ml of a phosphate buffer solution (PBS, pH 7.4). The temperature was maintained at 25° C. and 37.5° C. with stirring at 600 rpm. At predetermined time, 5 ml of the phosphate buffer solution was withdrawn to measure an amount of the released drug through HPLC. After sampling, the remaining phosphate buffer solution was completely removed, and a fresh phosphate buffer solution was added.

[2] = Precipitation / stability and solubility of drug in composite aqueous solution; type: physicochemical; details: drug not loaded in nanoparticles
Experimental: An aqueous solution was prepared by mixing 2 g of Pluronic F-127, 0.1 g of naproxen and 50 mg of sodium hyaluronate with 10 ml of distilled water, thereby preparing a polymer composite aqueous solution in which naproxen was dispersed.
An aqueous solution was prepared by mixing 1.6 g of Pluronic F-127, 0.4 g of Pluronic F-68, 50 mg of doxorubicin and 75 mg of docetaxel with 10 ml of distilled water, thereby preparing a polymer composite aqueous solution in which doxorubicin and docetaxel were dispersed.

SMILES	release of the drug [1]	precipitation in the polymer composite [2]
CCCCN1CCCCC1C(=O)Nc1c(C)cccc1C (stereo not shown) [bupivacaine]	decreased	
CC(=O)O[C@@]12CO[C@@H]1C[C@H](O)[C@@]1(C)C(=O)[C@H](O)C3=C(C)[C@@H](OC(=O)[C@H](O)[C@@H](NC(=O)OC(C)(C)C)c4ccccc4)C[C@@](O)([C@@H](OC(=O)c4ccccc4)[C@H]21)C3(C)C [docetaxel]		precipitated
COc1cccc2c1C(=O)c1c(O)c3c(c(O)c1C2=O)C[C@@](O)(C(=O)CO)C[C@@H]3O[C@H]1C[C@H](N)[C@H](O)[C@H](C)O1 [doxorubicin]	decreased	
COc1ccc2cc([C@H](C)C(=O)O)ccc2c1 [naproxen]		precipitated
